The record followed here is US8404803B2, “Cancer-associated antigen analogue peptides and uses thereof” (Chugai Seiyaku Kabushiki Kaisha, priority 2005, dated 2013).

Several values for one entry are separate records, joined by “and”; a condition that tells them apart may be missing. Equal values may be shown once.

In test [1] the test system is CD4-positive/IL-4-producing T cells. Kind of test: Flow cytometry detection of CD4-positive/IL-4-positive T cells in peptide-stimulated mononuclear cell samples. The class given is cell-based, human. Particulars: for CD4-positive/IL-4-positive frequencies, mean ± standard deviation: epitope determination, patient's mononuclear cell samples (FIG. 14); for CD4+ IL-4+ number of positive samples/tested samples: mononuclear cell samples cultured 48 hours with peptide and IL-2; for CD4+ IL-4+ number of positive samples/tested samples / CD4+ IL-4+ number of positive samples/tested samples × 100 (%): positive sample > mean of control + 2 × SD (OVCA10-MNC group, 1.148%); for frequency of CD4-positive/IL-4-positive cells, mean±standard deviation: all the analyzed mononuclear cell samples (FIG. 8); for frequency of CD4-positive/IL-4-positive T cells: typical example of flow cytometry, FIGS. 6 and 7, IL-2 and analogue peptide added. As for the experimental part:
(§1) All operations concerning cell culture were performed aseptically. First, human peripheral mononuclear cell fractions (comprising T cells, B cells, macrophages and such; hereinafter referred to as “mononuclear cell samples”) were prepared from the blood samples by density gradient centrifugation. Next, these mononuclear cells were suspended at 1×10^5 cell/ml in complete media having the following composition: • Complete Medium: RPMI1640 culture medium (Gibco Laboratories Inc., Grand Island, N.Y.) to which 10% fetal bovine serum (Cell Culture Laboratories, Cleveland, Ohio), 0.2 mM L-glutamine, 100 U/mL penicillin, 100 μg/mL streptomycin (Gibco Laboratories Inc.), and 0.2 ng/mL recombinant human IL-2 (Dainippon Pharmaceutical Co., Tokyo, Japan) have been mixed.
(§2) Theses mononuclear cell samples were placed still in V-bottomed 96-well tissue culture plastic plates (Flow Laboratories Inc., Horsham, Pa.) in the presence and absence of peptides, and cultured for 48 hours at 37° C. in a CO2 culture apparatus (Sanyo Medica, Osaka, Japan).
(§3) A number of mouse-derived anti-human specific monoclonal antibodies with different fluorescences (hereinafter referred to as ‘monoclonal antibodies’) were used to simultaneously analyze by double-staining the CD markers CD4 and CD8, which are on the T cell membranes, and the cytokines within the T cells. As the monoclonal antibodies, products labeled with either fluorescent substance phycoerythrin (hereinafter ‘PE’) or fluorescein isothiocyanate (hereinafter ‘FITC’) were used (Miltenyi Biotec, Glandbach, Germany). For detection, a flow cytometry apparatus FACScan (Becton Dickinson) was used to measure the frequency of cells to which the monoclonal antibodies had bound. Positive cells are automatically detected by the flow cytometry apparatus.
(§4) Since positive cells cannot be identified after the cytokines have been secreted to the outside of the cells, detection was performed at a stage where the cytokines are inside the cells. Therefore, the Cytofix/Cytoperm Kit (Pharmingen, San Diego, Calif.) was used for the analysis, using methods recommended by the manufacturer and a positive control for detection recommended by the kit (Prussin C, Metcalfe D, Detection of intracytoplasmic cytokine using flow cytometry and directly conjugated anti-cytokine antibodies, J Immunol Meth. 188: 117-128, 1995). Specifically, brefeldin A (Pharmingen, San Diego, Calif.) was added at 0.7 μl/1 ml/well to stop protein production in the Golgi apparatus, and the peptide-stimulated mononuclear cell samples were treated at 37° C. for two hours. Next, the culture plates were placed on ice and the reaction was stopped by adding physiological saline at 4° C. The mononuclear cell samples were transferred into 15 ml tubes as though by washing with the physiological saline at 4° C., and were then centrifuged at 1600 rpm for ten minutes to remove the supernatant.
(§5) First, to dye CD4s on the cell surface, 10 μl of FITC-labeled mouse anti-human CD4 was added, with CD8 monoclonal antibody as a control, and this was reacted at 4° C. for 30 minutes. The cells were then separated with 0.5% bovine serum albumin/physiological saline at 4° C., then 0.5% bovine serum albumin/physiological saline at 4° C. was added thereto, and this was centrifuged at 1600 rpm for ten minutes at 4° C. to remove the supernatant.
(§6) Next, the mononuclear cell samples were fixed and their cell membranes were permeabilized. The cells were suspended in 250 μl of Cytofix/Cytoperm (Pharmingen) solution and reacted at 4° C. for 20 minutes. 10 μl of the aforementioned fluorescently labeled anti-IFNγ monoclonal antibody or anti-IL-4 monoclonal antibody was added to these mononuclear cell samples and reacted at 4° C. for 30 minutes. Then, the cells were separated by adding 0.5% bovine serum albumin/physiological saline at 4° C., and 0.5% BSA/PBS at 4° C. was further added thereto. After centrifugation at 1600 rpm for ten minutes at 4° C., the supernatant was removed. […]

Test [2] has as its system CD4-positive/IFNγ-producing T cells. Kind of test: Flow cytometry detection of CD4-positive/IFNγ-positive T cells in peptide-stimulated mononuclear cell samples. The class given is cell-based, human. As to conditions: for CD4-positive/IFNγ expression-positive frequencies, mean ± standard deviation: epitope determination, patient's mononuclear cell samples (FIG. 16); for CD4+ IFNγ+ number of positive samples/tested samples: mononuclear cell samples cultured 48 hours with peptide and IL-2; for CD4+ IFNγ+ number of positive samples/tested samples / CD4+ IFNγ+ number of positive samples/tested samples × 100 (%): positive sample > mean of control + 2 × SD (OVCA10-MNC group, 1.378%); for frequency of CD4-positive/INFγ-positive cells, mean±standard deviation: all of the analyzed mononuclear cell samples (FIG. 11); for frequency of CD4-positive/IFNγ-positive T cells: typical example of flow cytometry, FIGS. 9 and 10, IL-2 and analogue peptide added. As for the experimental part: as §1, §2, §3, §4, §5, §6

On to “GHTAPGPLLV (listed as Homo sapiens) [OVCA102]”, for which, in test [1] (peptide 15 μM), the “CD4-positive/IL-4-positive frequencies, mean ± standard deviation” value is on record as 0.231±0.309%. Moreover, in test [1], the “CD4+ IL-4+ number of positive samples/tested samples” value is listed as 0/14 and the “CD4+ IL-4+ number of positive samples/tested samples × 100 (%)” value came out at 0%. Besides, the “CD4-positive/IFNγ expression-positive frequencies, mean ± standard deviation” value in test [2] (peptide 15 μM) is 0.532±0.545%. Moreover, in test [2], the “CD4+ IFNγ+ number of positive samples/tested samples” value is recorded as 1/14 and the “CD4+ IFNγ+ number of positive samples/tested samples × 100 (%)” value was found to be 7.1%.
With “RPIVPGPLLV (listed as Homo sapiens) [OVCA103]”, the “CD4-positive/IL-4-positive frequencies, mean ± standard deviation” value in test [1] (peptide 15 μM) is 0.211±0.269%. In addition, in test [1], the “CD4+ IL-4+ number of positive samples/tested samples” value was 0/14 and the “CD4+ IL-4+ number of positive samples/tested samples × 100 (%)” value was found to be 0%. Moreover, the “CD4-positive/IFNγ expression-positive frequencies, mean ± standard deviation” value in test [2] (peptide 15 μM) came out at 0.331±0.467%. Also, in test [2], the “CD4+ IFNγ+ number of positive samples/tested samples” value is on record as 1/14 and the “CD4+ IFNγ+ number of positive samples/tested samples × 100 (%)” value worked out at 7.1%.
For “GHTAPVPLLI (listed as Homo sapiens) [OVCA101]”, the “CD4-positive/IL-4-positive frequencies, mean ± standard deviation” value in test [1] (peptide 15 μM) is given as 0.181±0.231%. Moreover, in test [1], the “CD4+ IL-4+ number of positive samples/tested samples” value is on record as 0/14 and the “CD4+ IL-4+ number of positive samples/tested samples × 100 (%)” value is reported as 0%. Also, the “CD4-positive/IFNγ expression-positive frequencies, mean ± standard deviation” value in test [2] (peptide 15 μM) is on record as 0.471±0.562%. Further, in test [2], the “CD4+ IFNγ+ number of positive samples/tested samples” value is on record as 2/14 and the “CD4+ IFNγ+ number of positive samples/tested samples × 100 (%)” value amounted to 14.3%.
As to “GTSGTPASLPGHTAPGPLLV (listed as Homo sapiens) [OVCA10]”, the “frequency of CD4-positive/IL-4-positive cells, mean±standard deviation” value in test [1] (peptide 15 μM) turned out to be 0.252±0.448%. Besides, in test [1], the “CD4+ IL-4+ number of positive samples/tested samples” value is 1/33, the “CD4+ IL-4+ number of positive samples/tested samples × 100 (%)” value was 3.0% and the “frequency of CD4-positive/IL-4-positive T cells” value is 0.05%. The “frequency of CD4-positive/INFγ-positive cells, mean±standard deviation” value in test [2] (peptide 15 μM) came to 0.328±0.525%. Moreover, in test [2], the “CD4+ IFNγ+ number of positive samples/tested samples” value is recorded as 1/33, the “CD4+ IFNγ+ number of positive samples/tested samples × 100 (%)” value stood at 3.0% and the “frequency of CD4-positive/IFNγ-positive T cells” value came out at 0.11%.
Consider “GPTTASPLLV (listed as Homo sapiens) [OVCA105]”, for which the “CD4-positive/IL-4-positive frequencies, mean ± standard deviation” value in test [1] (peptide 15 μM) was found to be 0.243±0.358%. In test [1], the “CD4+ IL-4+ number of positive samples/tested samples” value was 1/14 and the “CD4+ IL-4+ number of positive samples/tested samples × 100 (%)” value is 0%. Besides, the “CD4-positive/IFNγ expression-positive frequencies, mean ± standard deviation” value in test [2] (peptide 15 μM) worked out at 0.379±0.497%. Besides, in test [2], the “CD4+ IFNγ+ number of positive samples/tested samples” value is 1/14 and the “CD4+ IFNγ+ number of positive samples/tested samples × 100 (%)” value was 7.1%.
Regarding “PFTLNFTITNLRYEENMRHP (listed as Homo sapiens) [OVCA12]”, the “frequency of CD4-positive/IL-4-producing T cells compared to groups to which OVCA10 was added” value in test [1] (FIG. 8, peptide 15 μM, statistically significant difference) is “higher”. For the same sequence, the “frequency of CD4-positive/IL-4-positive cells, mean±standard deviation” value in test [1] (peptide 15 μM) worked out at 5.263±9.059%. In test [1], the “CD4+ IL-4+ number of positive samples/tested samples” value was 18 of the 33 and 18/33; the “CD4+ IL-4+ number of positive samples/tested samples × 100 (%)” value was determined as 54.5%; the “frequency of CD4-positive/IL-4-positive T cells” value was 0.57%. In test [2] (FIG. 11, peptide 15 μM, statistically significant difference), the “frequency of CD4-positive/IFNγ-producing T cells compared to groups to which OVCA10 was added” value was “higher”. Further, the “frequency of CD4-positive/INFγ-positive cells, mean±standard deviation” value in test [2] (peptide 15 μM) is 5.071±10.315%. Further, in test [2], the “CD4+ IFNγ+ number of positive samples/tested samples” value is 13 of the 33 and 13/33; the “CD4+ IFNγ+ number of positive samples/tested samples × 100 (%)” value stood at 39.4%; the “frequency of CD4-positive/IFNγ-positive T cells” value was found to be 0.28%.
For “ETTATGPLLV (listed as Homo sapiens) [OVCA104]”, the “CD4-positive/IL-4-positive frequencies, mean ± standard deviation” value in test [1] (peptide 15 μM) came to 0.301±0.340%. In test [1], the “CD4+ IL-4+ number of positive samples/tested samples” value is listed as 0/14 and the “CD4+ IL-4+ number of positive samples/tested samples × 100 (%)” value is given as 0%. Besides, the “CD4-positive/IFNγ expression-positive frequencies, mean ± standard deviation” value in test [2] (peptide 15 μM) stood at 0.376±0.490%. In test [2], the “CD4+ IFNγ+ number of positive samples/tested samples” value is 1/14 and the “CD4+ IFNγ+ number of positive samples/tested samples × 100 (%)” value stood at 7.1%.
As for “GPSAASPLLV (listed as Homo sapiens) [OVCA106]”, the “CD4-positive/IL-4-positive frequencies, mean ± standard deviation” value in test [1] (peptide 15 μM) amounted to 0.649±1.337%. Moreover, in test [1], the “CD4+ IL-4+ number of positive samples/tested samples” value is on record as 2/14 and the “CD4+ IL-4+ number of positive samples/tested samples × 100 (%)” value is recorded as 14.3%. Also, the “CD4-positive/IFNγ expression-positive frequencies, mean ± standard deviation” value in test [2] (peptide 15 μM) was 0.641±1.082%. Further, in test [2], the “CD4+ IFNγ+ number of positive samples/tested samples” value is given as 2/14 and the “CD4+ IFNγ+ number of positive samples/tested samples × 100 (%)” value turned out to be 14.3%.
On to “LRYEENMRHPGSRKFNTTER (listed as Homo sapiens) [OVCA13]”, for which, in test [1], the “CD4+ IL-4+ number of positive samples/tested samples” value is 0/6 and the “CD4+ IL-4+ number of positive samples/tested samples × 100 (%)” value worked out at 0%. In addition, in test [2], the “CD4+ IFNγ+ number of positive samples/tested samples” value is 0/6 and the “CD4+ IFNγ+ number of positive samples/tested samples × 100 (%)” value turned out to be 0%.
For the sequence “STPGTSTVHLGTSGTPASLP (listed as Homo sapiens) [OVCA9]”, in test [1], the “CD4+ IL-4+ number of positive samples/tested samples” value is recorded as 0/29, the “CD4+ IL-4+ number of positive samples/tested samples × 100 (%)” value is 0% and the “frequency of CD4-positive/IL-4-positive T cells” value is listed as 0.05%. For the same sequence, in test [2], the “CD4+ IFNγ+ number of positive samples/tested samples” value was 2/29, the “CD4+ IFNγ+ number of positive samples/tested samples × 100 (%)” value was determined as 6.9% and the “frequency of CD4-positive/IFNγ-positive T cells” value is 0.02%.
As for “LRYEENMRHP (listed as Homo sapiens) [OVCA115]”, in test [1] (peptide 15 μM), the “CD4-positive/IL-4-positive frequencies, mean ± standard deviation” value is reported as 0.281±0.424%. In addition, in test [1], the “CD4+ IL-4+ number of positive samples/tested samples” value is 1/9 and the “CD4+ IL-4+ number of positive samples/tested samples × 100 (%)” value is given as 11.1%. Also, in test [2] (peptide 15 μM), the “CD4-positive/IFNγ expression-positive frequencies, mean ± standard deviation” value is recorded as 0.161±0.157%. Besides, in test [2], the “CD4+ IFNγ+ number of positive samples/tested samples” value is on record as 0/8 and the “CD4+ IFNγ+ number of positive samples/tested samples × 100 (%)” value is reported as 0%.
